Columns and labels:
[1] = Tolerability of inhaled (oropharyngeal) itaconate in naïve mice; format: in vivo; settings: inhaled dose of 0.25 mg/kg
Procedure: FIG. 18: Exogenous itaconate is anti-fibrotic. (A-C) Total BAL count, percentage of eosinophils (B) and Percentage of neutrophils (C) of PBS or itaconate dosed mice (0.25-10 mg/kg, oropharyngeal), 24 h post administration (n=4 per group). Data presented as mean±S.D.; Significance was tested by ordinary one-way ANOVA with Sidak's multiple comparison test, **P<0.01.
In order to address whether inhaled itaconate is anti-fibrotic, it was first determined a dose of itaconate that would not provoke an inflammatory response in murine airways. […] We administered inhaled (OPN) itaconate or PBS twice a week for two weeks during the fibrotic phase (starting at day 10 post bleomycin) to WT mice (FIG. 7A); this dosing strategy is in accordance with the American Thoracic guidelines for preclinical assessment of potential therapies for IPF (Jenkins et al., 2017). Subsequently pathology, fibrosis and lung function at d21 post bleomycin were assessed.

[2] = tested on: primary human lung fibroblasts; assay: JULI-Stage wound healing (scratch) assay; format: cell-based; settings: healthy HLFs, 10 mM itaconate, over a 48 h period
Procedure: (§1) Primary human lung fibroblasts were seeded in 96-well plate for proliferation assay (5,000 per well) or 24-well plate for wound healing assay and serum-starved overnight prior to treatment with itaconate in complete DMEM for 48-72 hrs. For wound healing assays, a standardised scratch was applied in each well using a p10 pipette tip. Images were taken in JULI-Stage system (NanoEntek) at three to five positions per well every 30 minutes and proliferation rate or wound closure were calculated using JU LI-Stage software (NanoEntek).
(§2) Human lung fibroblasts were cultured in media alone or supplemented with itaconate and assessed after 24 h-72 h. […] To assess the ability of itaconate to limit fibrosis related functions of HLFs, proliferation and wound healing assays were carried out in the presence or absence of itaconate.

[3] = tested on: bleomycin induced pulmonary fibrosis; assay: Therapeutic inhaled itaconate in bleomycin mouse model; format: in vivo; settings: 0.25 mg/kg oropharyngeal twice a week for two weeks from day 10 post bleomycin, WT mice
Procedure: Unless otherwise stated, all mice were between 8 and 12 weeks of age. Mice were housed in specific-pathogen-free conditions and given food and water ad libitum. All procedures were approved by the United Kingdom Home Office and conducted in strict accordance with the Animals (Scientific Procedures) Act 1986. […] All surgery was performed under ketamine and sodium pentobarbital anaesthesia and all efforts were made to minimize suffering. Mice were administered either 0.05U (1U/ml solution dissolved in PBS) of bleomycin sulphate (Sigma Aldrich) or 50 μl PBS via the oropharyngeal route at day 0 and culled after 7, 21 or 42 days. For therapeutic experiments mice were administered 0.25 mg/kg (1 mM solution dissolved in PBS, 50 μl) itaconic acid (Sigma Aldrich) or PBS via the oropharyngeal route twice a week, beginning 10 days after of bleomycin administration.
Lung function measurements were performed using the Flexivent system (Scireq, Montreal, Canada). After induction of anaesthesia with an i.p. injection of Pentobarbitone (50 mg/Kg, Sigma, UK) and i.m. injection of Ketamine (200 mg/Kg) (Fortdodge Animal Health Ltd, Southampton, UK), mice were tracheotomised and attached to the Flexivent ventilator via a blunt-ended 19-gauge needle. Mice were ventilated using the following settings; tidal volume of 7 ml/Kg body weight, 150 breaths/minute; positive end-expiratory pressure approximately 2 cm H2O. Standardisation of lung volume history was done by performing two deep inflations. Subsequently, measurements of dynamic resistance, dynamic elastance and dynamic compliance were determined using the snapshot-150 perturbation, a single frequency sinusoidal waveform. Resultant data was fitted using multiple linear regression to the single compartment model to determine the above parameters.
Paraffin-embedded sections (4 μm) of lungs (apical lobe) were stained with hematoxylin/eosin (H&E) and Sirius Red. For assessment of fibrosis, the semi-quantitative Ashcroft scoring system was used as previously described (Hubner et al., 2008, Biotechniques, 44(4): 507-11). All scoring and measurements were performed by 3-5 blinded independent observers.
Total RNA was reverse transcribed into cDNA using the High Capacity cDNA Reverse Transcription kit (Life Technologies), or GoScript reverse transcription system (Promega) for AMs, according to manufacturer's instructions. Real-time PCR was performed using fast-qPCR mastermix (Life technologies) on a Viia-7 instrument (Applied Biosciences) with Taqman primers for murine acod1, col-1α1, col3α1, col4α1, fn1, mmp2 or human acod1, cd163, fn1, IL-16, mmp1, mmp9 using actb (Life Technologies) as housekeeping gene.

[4] = tested on: healthy human primary lung fibroblasts; assay: Real-time PCR gene expression in fibroblasts cultured with itaconate; format: cell-based; settings: healthy HLFs, 10 mM itaconate, 24 h
Text: (§3) Primary human lung fibroblasts were isolated from lung resections of patients undergoing lung cancer surgery or lung transplantation performed after informed consent as approved by an external Research Ethics Committee (REC 15/SC0101) according to the Royal Brompton Hospital protocol (Royal Brompton & Harefield NHS Foundation Trust, 2016) and cultured in complete Dulbecco's modified eagle medium (10% FBS, 100 U/ml penicillin/streptomycin) (Gibco, ThermoFisher) to passage four. Human bronchial epithelial cells (HBE) were obtained from bronchial brushings during the bronchoscopy after informed consent and approved by an external Research Ethics Committee for ILD subjects (Ref. Nos. 10/H0720/12 and 15/SC0101). HBEs were cultured in bronchia.1 e thelial growth (BEGM) medium (Lonza) to passage four. MACS enriched human AM were cultured in complete RPMI (10% FBS, 100U/ml penicillin/streptomycin, Gibco, ThermoFisher) for 24 hrs. Fibroblasts and AM were cultured with 10 mM itaconate in complete medium for 24hrs prior to cell lysis in RLT buffer (QIAGEN) containing 1% 2-Mercaptoethanol (Sigma Aldrich).

[5] = tested on: primary human lung fibroblasts; assay: Seahorse mitochondrial stress test (OCR) of human lung fibroblasts cultured with itaconate; format: cell-based; settings: IPF HLFs (increased vs healthy HLFs), 24 h incubation with itaconate
[6] = tested on: primary human lung fibroblasts; assay: JULI-Stage proliferation assay; format: cell-based; settings: 10 mM itaconate, over 72 h
Procedure: as §1, §2

AMs from IPF patients = assay: Culture of AMs from IPF patients with itaconate; format: cell-based, human; settings: AMs from IPF patients cultured with itaconate
Text: as §3
1×10^7 BAL cells were stained with anti-CD206 (Biolegend) and Human TruStain FcX block (Biolegend) for 15 minutes at 4° C. in 0.5% FBS/2 mM EDTA in PBS prior to incubation with MACS anti-Cy7 microbeads (Miltenyi Biotec) for 15 minutes at 4° C. […]

Structure (SMILES): C=C(CC(=O)O)C(=O)O [itaconate, 2-methylidenebutanedioic acid]
- tolerability (no inflammatory response in murine airways) ([1]; repeated oropharyngeal administration, naïve mice (data not shown)): well tolerated
- tolerability (no inflammatory response in murine airways) ([1]; single oropharyngeal administration, naïve mice): well tolerated
- ability to close a standardized wound [2]: decreased
- Ashcroft score based on Sirius red staining ([3]; d21): significantly ameliorated
- expression of Col4α1 (lung homogenate) ([3]; d21): significantly ameliorated
- expression of Fn1 (lung homogenate) ([3]; d21): significantly ameliorated
- lung airway compliance ([3]; d21, FlexiVent): significantly ameliorated
- lung airway elastance ([3]; d21, FlexiVent): significantly ameliorated
- gene expression of FN-1 [4]: downregulated
- gene expression of IL-1β [4]: downregulated
- maximal respiration [5]: ameliorated
- spare respiratory capacity [5]: ameliorated
- proliferative capacity ([6]; HLFs from IPF patients): significantly reduced
- proliferative capacity ([6]; HLFs from healthy donors): significantly reduced
- pro-fibrotic and pro-inflammatory pathways (AMs from IPF patients): inhibits
